Source: PubChem BioAssay (NCI)
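At the GI50, growth is halved. TGI denotes the concentration required for complete inhibition of growth.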

Tests used:
Assay in all cases: DTP human tumour cell line panel, 384-well format
SNB-75 CNS = system: SNB-75 CNS
BT-549 breast = system: BT-549 breast
NCI-H460 NSCLC = system: NCI-H460 NSCLC
T-47D breast = system: T-47D breast
SF-539 CNS = system: SF-539 CNS
CCRF-CEM leukemia = system: CCRF-CEM leukemia
MDA-MB-231 breast = system: MDA-MB-231 breast
HCC-2998 colon = system: HCC-2998 colon
KM12 colon = system: KM12 colon
M14 melanoma = system: M14 melanoma
HT29 colon = system: HT29 colon
MALME-3M melanoma = system: MALME-3M melanoma
UACC-257 melanoma = system: UACC-257 melanoma
HOP-92 NSCLC = system: HOP-92 NSCLC
NCI-H226 lung = system: NCI-H226 lung
SK-OV-3 ovarian = system: SK-OV-3 ovarian
MOLT-4 leukemia = system: MOLT-4 leukemia
PC-3 prostate = system: PC-3 prostate
MDA-MB-435 melanoma = system: MDA-MB-435 melanoma
SF-268 CNS = system: SF-268 CNS
LOX IMVI melanoma = system: LOX IMVI melanoma
SF-295 CNS = system: SF-295 CNS
OVCAR-4 ovarian = system: OVCAR-4 ovarian
COLO 205 colon = system: COLO 205 colon
TK-10 renal = system: TK-10 renal
SNB-19 CNS = system: SNB-19 CNS
UO-31 renal = system: UO-31 renal
SK-MEL-28 melanoma = system: SK-MEL-28 melanoma
IGROV1 ovarian = system: IGROV1 ovarian
K-562 leukemia = system: K-562 leukemia
SR leukemia = system: SR leukemia
HS 578T breast = system: HS 578T breast
CAKI-1 renal = system: CAKI-1 renal
RPMI-8226 leukemia = system: RPMI-8226 leukemia
HOP-62 NSCLC = system: HOP-62 NSCLC
NCI-H23 lung = system: NCI-H23 lung
RXF 393 renal = system: RXF 393 renal
SN12C renal = system: SN12C renal
OVCAR-3 ovarian = system: OVCAR-3 ovarian
OVCAR-8 ovarian = system: OVCAR-8 ovarian
SW-620 colon = system: SW-620 colon
NCI/ADR-RES ovarian = system: NCI/ADR-RES ovarian
MCF7 breast = system: MCF7 breast
EKVX NSCLC = system: EKVX NSCLC
ACHN renal = system: ACHN renal
HL-60(TB) leukemia = system: HL-60(TB) leukemia
OVCAR-5 ovarian = system: OVCAR-5 ovarian

CC(C)(O)C1CCC(Nc2ccc3ncc(-c4cccc(C(F)(F)F)c4)n3n2)CC1 (centres undefined)
GI50 (SNB-75 CNS): 1.45 µM
TGI (SNB-75 CNS): 4.14 µM
GI50 (BT-549 breast): 1.45 µM
TGI (BT-549 breast): 3.88 µM
GI50 (NCI-H460 NSCLC): 1.13 µM
TGI (NCI-H460 NSCLC): 2.53 µM
GI50 (T-47D breast): 0.54 µM
TGI (T-47D breast): 2.12 µM
GI50 (SF-539 CNS): 1.02 µM
TGI (SF-539 CNS): 2.33 µM
GI50 (CCRF-CEM leukemia): 0.367 µM
TGI (CCRF-CEM leukemia): 1.56 µM
GI50 (MDA-MB-231 breast): 1.13 µM
TGI (MDA-MB-231 breast): 3.42 µM
GI50 (HCC-2998 colon): 1.22 µM
TGI (HCC-2998 colon): 2.75 µM
GI50 (KM12 colon): 0.051 µM
TGI (KM12 colon): 2.13 µM
GI50 (M14 melanoma): 0.798 µM
TGI (M14 melanoma): 2.22 µM
GI50 (HT29 colon): 1.31 µM
TGI (HT29 colon): 3.05 µM
GI50 (MALME-3M melanoma): 0.833 µM
TGI (MALME-3M melanoma): 2.95 µM
GI50 (UACC-257 melanoma): 1.55 µM
TGI (UACC-257 melanoma): 3.08 µM
GI50 (HOP-92 NSCLC): 0.67 µM
TGI (HOP-92 NSCLC): 3.13 µM
GI50 (NCI-H226 lung): 1 µM
TGI (NCI-H226 lung): 2.66 µM
GI50 (SK-OV-3 ovarian): 1.12 µM
TGI (SK-OV-3 ovarian): 2.89 µM
GI50 (MOLT-4 leukemia): 0.559 µM
TGI (MOLT-4 leukemia): 1.86 µM
GI50 (PC-3 prostate): 1.37 µM
TGI (PC-3 prostate): 3.32 µM
GI50 (MDA-MB-435 melanoma): 1.53 µM
TGI (MDA-MB-435 melanoma): 4.17 µM
GI50 (SF-268 CNS): 1.51 µM
TGI (SF-268 CNS): 4.44 µM
GI50 (LOX IMVI melanoma): 1.4 µM
TGI (LOX IMVI melanoma): 2.78 µM
GI50 (SF-295 CNS): 1.05 µM
TGI (SF-295 CNS): 2.4 µM
GI50 (OVCAR-4 ovarian): 0.994 µM
TGI (OVCAR-4 ovarian): 4.82 µM
GI50 (COLO 205 colon): 2.47 µM
TGI (COLO 205 colon): 8.7 µM
GI50 (TK-10 renal): 1.39 µM
TGI (TK-10 renal): 6.84 µM
GI50 (SNB-19 CNS): 1.9 µM
TGI (SNB-19 CNS): 5.5 µM
GI50 (UO-31 renal): 2.12 µM
TGI (UO-31 renal): 12.4 µM
GI50 (SK-MEL-28 melanoma): 1.37 µM
TGI (SK-MEL-28 melanoma): 2.69 µM
GI50 (IGROV1 ovarian): 1.91 µM
TGI (IGROV1 ovarian): 5.23 µM
GI50 (K-562 leukemia): 0.891 µM
TGI (K-562 leukemia): 2.21 µM
GI50 (SR leukemia): 0.588 µM
TGI (SR leukemia): 1.69 µM
GI50 (HS 578T breast): 0.364 µM
TGI (HS 578T breast): 1.66 µM
GI50 (CAKI-1 renal): 1.49 µM
TGI (CAKI-1 renal): 3.39 µM
GI50 (RPMI-8226 leukemia): 0.19 µM
TGI (RPMI-8226 leukemia): 0.365 µM
GI50 (HOP-62 NSCLC): 1.51 µM
TGI (HOP-62 NSCLC): 3.6 µM
GI50 (NCI-H23 lung): 1.46 µM
TGI (NCI-H23 lung): 3.3 µM
GI50 (RXF 393 renal): 0.202 µM
TGI (RXF 393 renal): 0.616 µM
GI50 (SN12C renal): 1.48 µM
TGI (SN12C renal): 5 µM
GI50 (OVCAR-3 ovarian): 1.95 µM
TGI (OVCAR-3 ovarian): 6.19 µM
GI50 (OVCAR-8 ovarian): 1.77 µM
TGI (OVCAR-8 ovarian): 4.71 µM
GI50 (SW-620 colon): 1.81 µM
TGI (SW-620 colon): 4.15 µM
GI50 (NCI/ADR-RES ovarian): 1.38 µM
TGI (NCI/ADR-RES ovarian): 3.3 µM
GI50 (MCF7 breast): 1.49 µM
TGI (MCF7 breast): 3.12 µM
GI50 (EKVX NSCLC): 1.67 µM
TGI (EKVX NSCLC): 5.66 µM
GI50 (ACHN renal): 1.63 µM
TGI (ACHN renal): 5.01 µM
GI50 (HL-60(TB) leukemia): 0.641 µM
TGI (HL-60(TB) leukemia): 1.88 µM
GI50 (OVCAR-5 ovarian): 1.82 µM
TGI (OVCAR-5 ovarian): 6.51 µM
